US6818407B2, “Anti-endotoxic antimicrobial cationic peptides and methods of use therfor” (priority 1998, dated 2004)

What was measured:
[1] = test system: E. coli; experiment: Synergy study (checkerboard titration) with hen white lysozyme; format: cell-based; conditions: for Lowest [CP] showing synergy: cationic peptide concentration, combined with lysozyme; for Lowest [Lyso] showing synergy: lysozyme concentration, combined with the peptide
Procedure: (§1) The biological activity of the peptides can be determined by standard methods known to those of skill in the art, such as Aminimal inhibitory concentration (MIC)≅ assay described in the present examples, whereby the lowest concentration at which no change in OD is observed for a given period of time is recorded as MIC. Alternatively, Afractional inhibitory concentration (FIC)≅ is also useful for determination of synergy between the peptides of the invention, or the peptides in combination with known antibiotics. FICs are performed by checkerboard titrations of peptides in one dimension of a microtiter plate, and of antibiotics in the other dimension, for example. The FIC is calculated by looking at the impact of one antibiotic on the MIC of the other and vice versa. […] Preferably, an FIC of less than 0.5 is obtained for synergism. As used herein, FIC can be determined as follows: [formula]

[2] = test system: Salmonella typhi; experiment: as above; format: cell-based; conditions: for Lowest [CP] showing synergy: cationic peptide concentration, combined with lysozyme; for Lowest [Lyso] showing synergy: lysozyme concentration, combined with the peptide
Procedure: as §1

[3] = test system: P. aeruginosa (H103); experiment: as above; format: cell-based; conditions: for Lowest [CP] showing synergy: cationic peptide concentration, combined with lysozyme; for Lowest [Lyso] showing synergy: lysozyme concentration, combined with the peptide
Procedure: as §1

[4] = test system: mutant (Nal B, H744) of P. aeruginosa; experiment: microbe, parasite or virus in culture; format: cell-based; conditions: for (B) MIC of Cipro when combined with peptide: ciprofloxacin with peptide at concentration (A); for MIC A MIC of Peptides: peptide alone, P. aeruginosa mutant Nal B, H744 (Table 5); for (A) Peptide doses together with Cipro: peptide concentration in combination with ciprofloxacin
Procedure: as §1
(§2) To test whether the peptides of the invention synergize with various antibiotics, the following method was employed. Fractional Inhibitory Concentration (FIC) was used to determine synergy of peptides combined with antibiotics (e.g., carbenicillin/ciprofloxacin) against Pseudomonas aeruginosa. The following methodology was followed:
(§3) (1) Determination of MIC of cationic peptides (MIC A):
(§4) 100 μl Mueller Hinton broth (MHB) was added per well
(§5) 12.5 μl of 10× test concentration peptide was added per well to get final peptide concentration of e.g., 128, 64, 32, . . . 0.025 μg/ml from row 1 to 11;
(§6) 10 μl of 10^−4 dilution of overnight bacterial culture was added per well.
(§7) (2) Determination of MIC of Carbenicillin/Ciprofloxacin (MIC B):
(§8) 100 μl MHB was added per well;
(§9) 100 μl of 2× test concentration of antibiotic was added in the first well of the row, and doubling dilutions performed across the plate from column 1 to 11;
(§10) (3) Determination of MIC of antibiotics (B) when combined with peptides at concentration A:
(§11) 100 μl Carbenicillin (512 μg/ml) or Ciprofloxacin (8 μg/ml) was added in each well of column 1; doubling dilutions were performed across the plate;
(§12) 100 μl of the peptide was added in all wells of row 1, mixed, and 100 μl withdrawn and added to row 2, etc., creating a checkerboard titration.
(§13) 10 μl of 10^−4 dilution of overnight culture was added per well;
(§14) plates were incubated at 37EC for 18-24 hours. Combination MIC values A and B were taken as the lowest concentration of drug that reduced bacterial growth by more than 50% in any given column.
(§15) (4) FIC index=FICA+FICB=(A)/MIC A+(B)/MIC B. An FIC index of approximately 0.5 or less indicates synergy; 1.0 reflects additivity; and >1.0 indicates antagonism.

[5] = test system: β-lactamase derepressed mutant (H547) of P. aeruginosa; experiment: microbe, parasite or virus in culture; format: cell-based; conditions: P. aeruginosa H547; for (B) MIC of Carb when combined with peptide: Carbenicillin with peptide at concentration (A); for MIC A MIC of Peptides: peptide alone; for (A) Peptide doses together with Carb: peptide concentration in combination with Carbenicillin
Procedure: as §1, §2, §3, §4, §5, §6, §7, §8, §9, §10, §11, §12, §13, §14, §15

[6] = test system: S. epidermis; experiment: MIC, broth microdilution assay in polypropylene microtiter trays; format: cell-based; conditions: average of three separate experiments
Procedure: as §1
(§16) A method which employed polypropylene microtiter trays in a broth microdilution assay was developed.

[7] = test system: E. coli; experiment: as above; format: cell-based; conditions: average of three separate experiments
Procedure: as §1, §16

[8] = test system: S. aureus K147; experiment: as above; format: cell-based; conditions: average of three separate experiments
Procedure: as §1, §16

[9] = test system: P. aeruginosa; experiment: as above; format: cell-based; conditions: average of three separate experiments
Procedure: as §1, §16

[10] = test system: S. aureus; experiment: as above; format: cell-based; conditions: average of three separate experiments
Procedure: as §1, §16

[11] = Lethal endotoxemia in galactosamine-sensitized mice; format: in vivo, CD-1 mice; conditions: peptide 200 μg intraperitoneal within 10 min of 10 μg LPS; 24 hours post injection; 5 mice per group; no peptide 100
Procedure: To confirm this in vivo, endotoxic shock was induced by intraperitoneal injection of 10 μg of E.coli 0111:B4 LPS in phosphate-buffered saline (PBS; pH 7.2) into galactosamine-sensitized 8- to 10- week old female CD-1 mice (5 per group). In experiments involving peptides, 200 μg in 100 μl of sterile water was injected at separate intraperitoneal sites within 10 min of LPS injection. Survival was monitored at 24 hours post injection.

[12] = test system: Pseudomonas aeruginosa strain M2; experiment: Protection of neutropenic CD-1 mice challenged with Pseudomonas aeruginosa; format: in vivo; parameters: Survival post bacterial challenge, surviving mice: reference not given here; conditions: for Survival (%) post bacterial challenge: PBS 8
Procedure: CD-1 mice were induced to be neutropenic via 3 intraperitoneal injections of cyclophosphamide ([…]) every another day. Immediately after the third administration of cyclophosphamide, the mice were challenged by intraperitoneal injection of Pseudomonas aeruginosa strain M2 (200-300 organisms/mouse). Cationic peptides (200 µg per mouse=8 mg/kg) in 100 µl buffered citrate were injected intraperitoneally at 30 min (single dose) or 30 min and 16 hrs (double dose) post bacterial challenge, respectively. The data were the average values of 2 individual experiments. PBS was used as a control. […] In general single dose protection studies gave better protection than double dose experiments.

CC[C@H](C)[C@H](NC(=O)CNC(=O)[C@@H](NC(=O)[C@H](CCCCN)NC(=O)[C@H](CCCCN)NC(=O)[C@H](Cc1ccccc1)NC(=O)[C@H](CC(C)C)NC(=O)[C@@H](N)CCCCN)[C@@H](C)CC)C(=O)NCC(=O)N[C@@H](C)C(=O)N[C@H](C(=O)N[C@@H](CC(C)C)C(=O)N[C@@H](CCCCN)C(=O)N[C@H](C(=O)N[C@@H](CC(C)C)C(=O)N[C@@H](CCCCN)C(=O)N[C@H](C(=O)N[C@@H](CC(C)C)C(=O)N[C@H](C(=O)N[C@H](C(=O)NCC(=O)N[C@@H](CC(C)C)C(=O)N1CCC[C@H]1C(=O)N[C@@H](C)C(=O)N[C@@H](CC(C)C)C(=O)N[C@@H](CCCCN)C(=O)N[C@@H](CC(C)C)C(=O)N[C@H](C(=O)N[C@@H](CC(C)C)C(=O)N[C@@H](CCCCN)C(=O)O)[C@@H](C)O)[C@@H](C)O)[C@@H](C)O)C(C)C)C(C)C)C(C)C [CM5]
FIC for combination of cationic peptide and lysozyme [1]: 0.27 | Lowest [CP] showing synergy [1]: 1.3 µg/mL | Lowest [Lyso] showing synergy [1]: 7.8 µg/mL | FIC for combination of cationic peptide and lysozyme [2]: 0.56 | Lowest [CP] showing synergy [2]: 10.4 µg/mL | Lowest [Lyso] showing synergy [2]: 62.5 µg/mL | FIC for combination of cationic peptide and lysozyme [3]: 0.63 | Lowest [CP] showing synergy [3]: 10.4 µg/mL | Lowest [Lyso] showing synergy [3]: 125 µg/mL | (B) MIC of Cipro when combined with peptide ([4]; Nal B, H744): .125 µg/mL | FIC index ([4]; peptide + ciprofloxacin, Nal B, H744): .75 | MIC A MIC of Peptides [4]: 4 µg/mL | (A) Peptide doses together with Cipro ([4]; Nal B, H744): 1 µg/mL | (B) MIC of Carb when combined with peptide [5]: 16 µg/mL | FIC index ([5]; peptide + Carbenicillin, about 0.5 or less synergy, 1.0 additivity, >1.0 antagonism): 0.38 | MIC A MIC of Peptides [5]: 32 µg/mL | (A) Peptide doses together with Carb [5]: 4 µg/mL | MIC S. epidermis [6]: 11 µg/mL | MIC E. coli [7]: 4 µg/mL | MIC S. aureus K147 [8]: 64 µg/mL | MIC P. aeruginosa [9]: 16 µg/mL | MIC S. aureus [10]: >64 µg/mL | Mortality (%) [11]: 80%

CC[C@H](C)[C@H](NC(=O)CNC(=O)[C@@H](NC(=O)[C@H](CCCCN)NC(=O)[C@H](CCCCN)NC(=O)[C@H](Cc1ccccc1)NC(=O)[C@H](CCCCN)NC(=O)[C@H](Cc1c[nH]c2ccccc12)NC(=O)[C@@H](N)CCCCN)[C@@H](C)CC)C(=O)NCC(=O)N[C@@H](C)C(=O)N[C@H](C(=O)N[C@@H](CC(C)C)C(=O)N[C@@H](CCCCN)C(=O)N[C@H](C(=O)N[C@@H](CC(C)C)C(=O)N[C@@H](CCCCN)C(=O)N[C@H](C(=O)N[C@@H](CC(C)C)C(=O)N[C@H](C(=O)N[C@H](C(=O)NCC(=O)N[C@@H](CC(C)C)C(=O)N1CCC[C@H]1C(=O)N[C@@H](C)C(=O)N[C@@H](CC(C)C)C(=O)N[C@@H](CCCCN)C(=O)N[C@@H](CC(C)C)C(=O)N[C@H](C(=O)N[C@@H](CC(C)C)C(=O)N[C@@H](CCCCN)C(=O)O)[C@@H](C)O)[C@@H](C)O)[C@@H](C)O)C(C)C)C(C)C)C(C)C [CM6]
Survival post bacterial challenge, surviving mice ([12]; double dose (200 μg per mouse i.p. at 30 min and 16 hrs), 16 hr): 14 | Survival post bacterial challenge, surviving mice ([12]; double dose, 24 hr): 14 | Survival post bacterial challenge, surviving mice ([12]; double dose, 41 hr): 11 | Survival post bacterial challenge, surviving mice ([12]; double dose, 48 hr): 9 | Survival post bacterial challenge, surviving mice ([12]; double dose, 64 hr): 6 | Survival (%) post bacterial challenge ([12]; double dose, 64 hr): 42% | Survival post bacterial challenge, surviving mice ([12]; double dose, 72 hr): 6 | Survival (%) post bacterial challenge ([12]; double dose, 72 hr): 42% | Survival post bacterial challenge, surviving mice ([12]; double dose, 96 hr): 5 | Survival (%) post bacterial challenge ([12]; double dose, 96 hr): 35% | Survival post bacterial challenge, surviving mice ([12]; single dose (200 μg per mouse i.p. at 30 min), 16 hr): 15 | Survival post bacterial challenge, surviving mice ([12]; single dose, 24 hr): 15 | Survival post bacterial challenge, surviving mice ([12]; single dose, 41 hr): 13 | Survival post bacterial challenge, surviving mice ([12]; single dose, 48 hr): 11 | Survival post bacterial challenge, surviving mice ([12]; single dose, 64 hr): 9 | Survival (%) post bacterial challenge ([12]; single dose, 64 hr): 60% | Survival post bacterial challenge, surviving mice ([12]; single dose, 72 hr): 9 | Survival (%) post bacterial challenge ([12]; single dose, 72 hr): 60% | Survival post bacterial challenge, surviving mice ([12]; single dose, 96 hr): 7 | Survival (%) post bacterial challenge ([12]; single dose, 96 hr): 46% | FIC for combination of cationic peptide and lysozyme [1]: 0.08 | Lowest [CP] showing synergy [1]: 0.326 µg/mL | Lowest [Lyso] showing synergy [1]: 7.8 µg/mL | FIC for combination of cationic peptide and lysozyme [2]: 0.50 | Lowest [CP] showing synergy [2]: 5.21 µg/mL | Lowest [Lyso] showing synergy [2]: 7.8 µg/mL | FIC for combination of cationic peptide and lysozyme [3]: 0.63 | Lowest [CP] showing synergy [3]: 5.21 µg/mL | Lowest [Lyso] showing synergy [3]: 125 µg/mL | (B) MIC of Cipro when combined with peptide ([4]; Nal B, H744): .125 µg/mL | MIC A MIC of Peptides [4]: 1 µg/mL | (A) Peptide doses together with Cipro ([4]; Nal B, H744): 1 µg/mL | (B) MIC of Carb when combined with peptide [5]: 64 µg/mL | MIC A MIC of Peptides [5]: 2 µg/mL | (A) Peptide doses together with Carb [5]: 1 µg/mL | MIC S. epidermis [6]: 8 µg/mL | MIC E. coli [7]: 2 µg/mL | MIC S. aureus K147 [8]: 32 µg/mL | MIC P. aeruginosa [9]: 8 µg/mL | MIC S. aureus [10]: 32 µg/mL | Mortality (%) [11]: 100%

H-KWKSFIKKLTSAAKKVVTTAKPLALIS-OH [CM1]
FIC for combination of cationic peptide and lysozyme [1]: 0.19 | Lowest [CP] showing synergy [1]: 0.041 µg/mL | Lowest [Lyso] showing synergy [1]: 7.8 µg/mL | FIC for combination of cationic peptide and lysozyme [2]: 0.53 | Lowest [CP] showing synergy [2]: 0.531 µg/mL | Lowest [Lyso] showing synergy [2]: 31.3 µg/mL | FIC for combination of cationic peptide and lysozyme [3]: 0.28 | Lowest [CP] showing synergy [3]: 0.65 µg/mL | Lowest [Lyso] showing synergy [3]: 7.8 µg/mL | (B) MIC of Cipro when combined with peptide ([4]; Nal B, H744): .25 µg/mL | MIC A MIC of Peptides [4]: 2 µg/mL | (A) Peptide doses together with Cipro ([4]; Nal B, H744): 1 µg/mL | (B) MIC of Carb when combined with peptide [5]: 64 µg/mL | MIC A MIC of Peptides [5]: 16 µg/mL | (A) Peptide doses together with Carb [5]: 2 µg/mL | MIC S. epidermis [6]: 21 µg/mL | MIC E. coli [7]: 1 µg/mL | MIC S. aureus K147 [8]: 32 µg/mL | MIC P. aeruginosa [9]: 5 µg/mL | MIC S. aureus [10]: 64 µg/mL | Mortality (%) [11]: 100%
